Measured values: ChEMBL document CHEMBL1147265, “Lucidenic acids P and Q, methyl lucidenate P, and other triterpenoids from the fungus Ganoderma lucidum and their inhibitory effects on Epstein-Barr virus activation” (J Nat Prod, 2003)

How the values were obtained:
Raji [1] = test: Inhibition of 12-O-tetradecanoylphorbol-13-acetate-induced EBV-early antigen activation in human Raji cells assessed as EA induction at 1000 molar ratio relative to 12-O-tetradecanoylphorbol-13-acetate by immunofluorescence technique; type: cell-based; design: scale not given: the % may be the effect or the level left; settings: human gammaherpesvirus 4
Raji [2] = test: Inhibition of 12-O-tetradecanoylphorbol-13-acetate-induced EBV-early antigen activation in human Raji cells assessed as EA induction at 500 molar ratio relative to 12-O-tetradecanoylphorbol-13-acetate by immunofluorescence technique; type: cell-based; design: scale not given: the % may be the effect or the level left; settings: human gammaherpesvirus 4
[3] = Inhibition of 12-O-tetradecanoylphorbol-13-acetate-induced EBV-early antigen activation in human Raji cells assessed per 32 pmol TPA by immunofluorescence technique; type: cell-based, human gammaherpesvirus 4
Raji [4] = test: Inhibition of 12-O-tetradecanoylphorbol-13-acetate-induced EBV-early antigen activation in human Raji cells assessed as EA induction at 10 molar ratio relative to 12-O-tetradecanoylphorbol-13-acetate by immunofluorescence technique; type: cell-based; design: scale not given: the % may be the effect or the level left; settings: human gammaherpesvirus 4
[5] = Cytotoxicity against human Raji cells assessed as cell viability at 1000 molar ratio by trypan blue staining method; type: cell-based; settings: read-out: Activity
Raji [6] = test: Inhibition of 12-O-tetradecanoylphorbol-13-acetate-induced EBV-early antigen activation in human Raji cells assessed as EA induction at 100 molar ratio relative to 12-O-tetradecanoylphorbol-13-acetate by immunofluorescence technique; type: cell-based; design: scale not given: the % may be the effect or the level left; settings: human gammaherpesvirus 4

Structure (SMILES) | Activity (Raji [1]) [%] | Activity (Raji [2]) [%] | IC50 [3] [molar ratio] | Activity (Raji [4]) [%] | viability at 1000 molar ratio [5] [%] | Activity (Raji [6]) [%]
CC(=O)OC1C[C@H]([C@H](C)CC/C=C(/C)C(=O)O)[C@@]2(C)CC=C3C(=CC[C@H]4C(C)(C)C(=O)CC[C@]34C)[C@]12C (some centres undefined) | -0 | 26.4 | 281 | 95.3 | 70 | 74.6
COC(=O)CC[C@@H](C)[C@H]1CC(=O)[C@@]2(C)C3=C(C(=O)C[C@]12C)[C@@]1(C)CCC(=O)C(C)(C)[C@@H]1C[C@@H]3O [METHYL LUCIDENATE A] | -0 | 24.9 | 287 | 95 | 70 | 75.1
CC(=O)O[C@@H]1C(=O)C2=C([C@@H](O)C[C@H]3C(C)(C)[C@@H](O)CC[C@]23C)[C@]2(C)C(=O)C[C@H]([C@H](C)CCC(=O)O)[C@@]12C [LUCIDENIC ACID P] | -0 | 27.5 | 286 | 96.6 | 70 | 74.2
C[C@H](CC(=O)C[C@@H](C)[C@H]1CC(=O)[C@@]2(C)C3=C(C(=O)C[C@]12C)[C@@]1(C)CCC(=O)C(C)(C)[C@@H]1CC3=O)C(=O)O [GANODERIC ACID E] | -0 | 28.3 | 281 | 97.4 | 70 | 79
CC(=O)O[C@@H]1C(=O)C2=C(C(=O)C[C@H]3C(C)(C)[C@@H](O)CC[C@]23C)[C@]2(C)C(=O)C[C@H]([C@H](C)CCC(=O)O)[C@@]12C [LUDICENIC ACID E2] | -0 | 23.5 | 280 | 94 | 70 | 73.1
CC(=O)O[C@@H]1C(=O)C2=C(C(=O)C[C@H]3C(C)(C)C(=O)CC[C@]23C)[C@]2(C)C(=O)C[C@H]([C@H](C)CC(=O)CC(C)C(=O)O)[C@@]12C (some centres undefined) [GANODERIC ACID F] | 3.6 | 28.5 | 293 | 98.7 | 70 | 77.1
COC(=O)CC[C@@H](C)[C@H]1C[C@H](O)[C@@]2(C)C3=C(C(=O)C[C@]12C)[C@@]1(C)CCC(=O)C(C)(C)[C@@H]1C[C@@H]3O [METHYL LUCIDENATE Q] | -0 | 24.6 | 283 | 95.4 | 70 | 73.7
COC(=O)CC[C@@H](C)[C@H]1CC(=O)[C@@]2(C)C3=C(C(=O)C[C@]12C)[C@@]1(C)CCC(=O)C(C)(C)[C@@H]1CC3=O [METHYL LUCIDENATE F] | 2.1 | 26.8 | 285 | 98.3 | 70 | 75.4
C[C@H](CCC(=O)O)[C@H]1CC(=O)[C@@]2(C)C3=C(C(=O)C[C@]12C)[C@@]1(C)CCC(=O)C(C)(C)[C@@H]1C[C@@H]3O [LUCIDENIC ACID A] | -0 | 22.7 | 280 | 96.1 | 70 | 73
C[C@H](CCC(=O)O)[C@H]1CC(=O)[C@@]2(C)C3=C(C(=O)[C@@H](O)[C@]12C)[C@@]1(C)CC[C@H](O)C(C)(C)[C@@H]1C[C@@H]3O [LUCIDENIC ACID C] | -0 | 24 | 284 | 93.1 | 70 | 72.6
COC(=O)CC[C@@H](C)[C@H]1CC(=O)[C@@]2(C)C3=C(C(=O)[C@@H](OC(C)=O)[C@]12C)[C@@]1(C)CC[C@H](O)C(C)(C)[C@@H]1CC3=O [METHYL LUCIDENATE E2] | 1.2 | 27.9 | 288 | 95.4 | 70 | 76
CC1=C(/C=C/C(C)=C/C=C/C(C)=C/C=C/C=C(C)/C=C/C=C(C)/C=C/C2=C(C)CCCC2(C)C)C(C)(C)CCC1 [BETA CAROTENE] | 8.6 | – | 400 | 100 | – | –
CC(=O)O[C@@H]1C(=O)C2=C(C(=O)C[C@H]3C(C)(C)C(=O)CC[C@]23C)[C@]2(C)C(=O)C[C@H]([C@H](C)CCC(=O)O)[C@@]12C [LUCIDENIC ACID D2] | 2 | 26.1 | 287 | 96.1 | 70 | 73.8
COC(=O)C(C)CC(=O)C[C@@H](C)[C@H]1CC(=O)[C@@]2(C)C3=C(C(=O)[C@@H](OC(C)=O)[C@]12C)[C@@]1(C)CCC(=O)C(C)(C)[C@@H]1CC3=O (some centres undefined) [METHYL GANODERATE F] | 2.3 | 26.4 | 289 | 100 | 70 | 75.3
COC(=O)CC[C@@H](C)[C@H]1CC(=O)[C@@]2(C)C3=C(C(=O)[C@@H](O)[C@]12C)[C@@]1(C)CC[C@H](O)C(C)(C)[C@@H]1CC3=O [METHYL LUCIDENATE L] | -0 | 21.7 | 275 | 92.6 | 70 | 71.9
COC(=O)CC[C@@H](C)[C@H]1CC(=O)[C@@]2(C)C3=C(C(=O)[C@@H](OC(C)=O)[C@]12C)[C@@]1(C)CCC(=O)C(C)(C)[C@@H]1CC3=O [METHYL LUCIDENATE D2] | 2.2 | 29.3 | 290 | 98 | 70 | 76.9
COC(=O)CC[C@@H](C)[C@H]1CC(=O)[C@@]2(C)C3=C(C(=O)[C@@H](OC(C)=O)[C@]12C)[C@@]1(C)CC[C@H](O)C(C)(C)[C@@H]1C[C@@H]3O [METHYL LUCIDENATE P] | 2.3 | 28.9 | 293 | 97.6 | 70 | 77.4
